Measured values as given in patent publication US7566732B2, “Rhodanine compositions for use as antiviral agents” (priority 2003, dated 2009).

Target: EVp28 (Gst-Evp28) ubiquitin ligase (Ectromelia virus, UniProt Q85318)
Test: biochemical

Structure (SMILES) | IC50
O=C1/C(=C\c2ccc(-c3cccc(C(F)(F)F)c3)o2)SC(=S)N1Cc1ccccc1 [Compound 54, (5E)-3-benzyl-2-thioxo-5-({5-[3-(trifluoromethyl)phenyl]-2-furyl}methylene)-1,3-thiazolidin-4-one] | 16 nM
O=C1/C(=C\c2nc3ccccc3[nH]2)SC(=S)N1c1ccc(F)cc1 [Compound 307] | 92 nM
